Laboratory results taken from PMC12562681, “Targeting a Tau Kinase Cdk5, Cyclin-Dependent Kinase: A Blood-Based Diagnostic Marker and Therapeutic Earmark for Alzheimer’s Disease” (Biomolecules, 2025).
Where two headings read alike, the source gives them in different places. Peptide text beside a SMILES is read from it.

Experiments:
[1] = tested on: Cdk5; assay: Cdk5 expression by Western blot in Aβ25–35-treated SH-SY5Y cells; type: cell-based; details: aggregated Aβ25–35, SH-SY5Y
Procedure: (§1) The concentration of total protein in cell lysate was measured using the bicinchoninic acid (BCA) assay. Samples were prepared using the 6× protein loading dye and incubated at 95 °C for 15 min. Equal concentrations of cell lysate (50 µg/lane) were fractionated by 10% SDS-PAGE and transferred to PVDF membrane. The membrane was blocked with 5% NFM for 2 h and then probed with their respective primary antibodies: Cdk5 (1:400) and Mcl1 (1:1000), mouse IgG anti-β-amyloid (1:200) (Sc28365), mouse IgG anti-Tau (Tau-46) (1:200) (Santa Cruz Biotechnology Inc., Dallas, TX, USA, Sc32274), rabbit IgG anti-phospho-Tau (Thr181) (1:350) (Cell Signaling Technology, Inc., Danvers, MA, USA, DAF4G), and rabbit antibody IgG anti-β-actin (1:1000) (Cell Signaling Technology, Inc., Danvers, MA, USA). The membranes were incubated with the secondary anti-rabbit and anti-mouse (cat. no. Sc2004, Sc2005) HRP-conjugated antibody (1:4000) at room temperature for 1 h.

[2] = tested on: Cdk5 mRNA; assay: Cdk5 mRNA by RT-PCR in Aβ25–35-treated SH-SY5Y cells; type: cell-based; details: aggregated Aβ25–35 alone; δ-δ CT, GAPDH; triplicate
Description: [36]; Mcl1 forward primer-[NT] and reverse primer-[…] forward primer-[NT] and reverse primer-[NT].

[3] = tested on: Aβ-amyloid; assay: Aβ-amyloid expression by Western blot in Aβ25–35-treated SH-SY5Y cells; type: cell-based; details: aggregated Aβ25–35 alone
Procedure: as §1

[4] = tested on: Tau; assay: Tau expression by Western blot in Aβ25–35-treated SH-SY5Y cells; type: cell-based; details: aggregated Aβ25–35 alone
Procedure: as §1

[5] = tested on: phospho-Tau (Thr181); assay: p-Tau expression by Western blot in Aβ25–35-treated SH-SY5Y cells; type: cell-based; details: aggregated Aβ25–35 alone
Procedure: as §1

[6] = target: T1, Cdk5 (Homo sapiens, UniProt Q00535); assay: Binding study of peptide by SPR (Ni-NTA chip, immobilized recombinant Cdk5); details: recombinant Cdk5 on Ni-NTA sensor chip, peptide 0.4, 0.6 and 1 µM, BIA evaluation 3.0, read-out: dissociation constant (KD)
T1 construct: host or cells: E. coli BL21
Procedure: Different concentrations of purified recombinant human Cdk5 and Mcl1 proteins were passed over the respective flow cells, and corresponding response units (RU) were noted. The standard curve was prepared by plotting different concentrations of pure proteins versus the corresponding RU (Figure S1). Serum samples were diluted (1:79) with HBS-EP buffer and passed over the respective flow cell. The RU for each sample was noted, and the concentration of Cdk5 and Mcl1 in the serum sample was derived from their respective standard curves.
The recombinant Cdk5 protein was immobilized on the Ni-NTA sensor chip by passing NiCl2 solution and the protein. Different concentrations of peptide YCWS (0.4 µM, 0.6 µM, and 1 µM) were passed over it, and changes in RU were noted. The association constant (KA) and dissociation constant (KD) values were calculated using the BIA evaluation 3.0 software.

[7] = tested on: HEK-293 cells; assay: Cell cytotoxicity assay in HEK-293 cells (MTT); type: cell-based; details: 24 h, 48 h and 72 h, up to 50 µM, triplicate
Description: (§2) SH-SY5Y and HEK 293 cells were purchased from NCCS, Pune, India, and were maintained in Ham’s F12 (cat. no. 21700075) and Dulbecco’s Modified Eagle Medium (DMEM, cat. no. 12800017) nutrient media (Gibco, Waltham, MA, USA), respectively, supplemented with 10% (v/v) Fetal Bovine Serum (FBS, cat. no. 10270106) and 1% antibiotic–antimycotic solution (cat. no. CC4003010L, CELL clone, New Delhi, India). The SH-SY5Y cells used in the experiment were of passage number 42–46. Cells were maintained as a monolayer culture at 37 °C with 5% CO2 and 95% relative humidity. Potential contamination in all cells was assessed through STR profiling (DNA Forensic Laboratory Private Limited, New Delhi, India).
The peptide’s effect was initially assessed using the normal HEK 293 cell line, and the cell viability was determined by the 3-(4,5-dimethylthiazol-2-yl)-2,5-diphenyltetrazolium bromide (MTT) (cat. no. T0793) reduction assay. Cells were seeded in 96-well plates at a density of 5 × 10^3 cells per 100 μL per well. Cells were cultured for 24 h and then treated with different concentrations of peptide, i.e., 10 µM, 20 µM, and 50 µM, for different time intervals (24 h, 48 h, and 72 h). At the end of treatment, 10 μL MTT (5 mg/mL) was added in each well and incubated for 4 h at 37 °C. […] The absorbance value at 572 nm was measured using a microplate reader. […]

[8] = tested on: SH-SY5Y cells; type: cell-based; details: triplicate
Description: as §2
Aggregated Aβ25–35 was employed to induce neurotoxicity in SH-SY5Y cells due to its ability to replicate the physiological and biological characteristics of Aβ-amyloid, known to mediate neurotoxic effects and contribute to neuronal cell damage. The effect of peptide on neurotoxicity caused by aggregated Aβ25–35 was assessed via MTT assay. Cells were seeded in 96-well plates at a density of 1 × 10^4 cells per 100 μL per well. Cells were cultured for 24 h and then treated with 20 µM retinoic acid for differentiation. The culture medium was routinely replaced every alternate day for a period of seven days. A stock solution of 20 mM Aβ25–35 was prepared by dissolving 2.12 mg of synthesized Aβ25–35 in 100 µL of 1× PBS and allowed to aggregate at 37 °C for 7 days. Cells were treated with 20 µM aggregated Aβ25–35, along with different concentrations of the peptide YCWS (2 µM, 5 µM, 10 µM, 15 µM, and 20 µM) for 24 h, 48 h, and 72 h. After completion of the treatment duration, cell viability was determined using the MTT assay as described above.

[9] = tested on: SHSY-5Y cells; assay: Cytotoxicity of peptide in SHSY-5Y cells; type: cell-based; details: discussion statement, concentration and time not given

T1 sequence (Q00535 whole entry): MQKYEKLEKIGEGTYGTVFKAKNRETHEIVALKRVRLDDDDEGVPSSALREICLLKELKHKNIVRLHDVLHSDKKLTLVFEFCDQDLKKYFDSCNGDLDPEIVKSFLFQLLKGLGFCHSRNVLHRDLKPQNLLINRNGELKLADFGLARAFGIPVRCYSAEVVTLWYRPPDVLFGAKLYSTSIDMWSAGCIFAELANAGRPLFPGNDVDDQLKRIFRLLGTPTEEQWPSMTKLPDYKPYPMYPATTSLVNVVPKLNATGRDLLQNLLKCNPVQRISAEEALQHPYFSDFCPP

CC[C@H](C)[C@H](NC(=O)[C@H](C)NC(=O)CNC(=O)[C@H](CCCCN)NC(=O)[C@H](CC(N)=O)NC(=O)[C@H](CO)NC(=O)CN)C(=O)N[C@H](C(=O)NCC(=O)N[C@@H](CC(C)C)C(=O)N[C@@H](CCSC)C(=O)O)[C@@H](C)CC [Aβ25–35] (H-GSNKGAIIGLM-OH; N-terminus and C-terminus assumed)
Cdk5 protein expression [1]: increased the expression of Cdk5 | Cdk5 mRNA expression, fold vs control group [2]: 1.85 fold | Aβ-amyloid expression [3]: increased | tau expression [4]: increased | p-Tau expression [5]: increased

N[C@@H](Cc1ccc(O)cc1)C(=O)N[C@@H](CS)C(=O)N[C@@H](Cc1c[nH]c2ccccc12)C(=O)N[C@@H](CO)C(=O)O [YCWS] (H-YCWS-OH)
Kd [6]: 3.94 nM | cytotoxicity, HEK-293 cells [7]: nontoxic | cell viability, rescue ([8]; YCWS 2 µM + 20 µM aggregated Aβ25–35, MTT, time of value not stated (24, 48, 72 h tested)): 87.28% | cell viability, rescue ([8]; YCWS 5 µM + 20 µM aggregated Aβ25–35, MTT, time of value not stated (24, 48, 72 h tested)): 91.47% | cell viability, rescue ([8]; YCWS 10 µM + 20 µM aggregated Aβ25–35, MTT, time of value not stated (24, 48, 72 h tested)): 92.20% | cell viability, rescue ([8]; YCWS 15 µM + 20 µM aggregated Aβ25–35, MTT, time of value not stated (24, 48, 72 h tested)): 98.27% | cell viability, rescue ([8]; YCWS 20 µM ("up to") + 20 µM aggregated Aβ25–35, MTT, p < 0.001 vs Aβ (Mann–Whitney), time of value not stated): 98.55% | cytotoxicity, SHSY-5Y cells [9]: non-toxic
